Assay results published in patent US20250129370A1, “METHOD FOR REDUCING HEPATIC TRIGLYCERIDES” (ADAERATA, LIMITED PARTNERSHIP, priority 2022, published 2025).

Test system: PC7
Assay: PC7 shedding of hTfR1 into the media, Huh7 cells
Format: cell-based, human
Conditions: Huh7, 2×, 3× and 5× miR-125a-5p vector
Experimental: FIGS. 32A-B Western blot (FIG. 32A) and quantitative (FIG. 32B) analysis of human PC7 and TFR1 expression in Huh7 cells, in which miR-125-5p was overexpressed. […] X stands for vector DNA fold for miR-125-5p compared to vector expressing PC7. Because both PC7-V5 and hTfR1-V5 were V5-tagged, the WB using a mAb-V5 reflects the expression of both proteins.
In the next step, the effect of miR-125a-5p on PC7 function was determined. First, the miR-125a-5p-overexpressing vector and its related mock plasmids were co-transfected with the pIRES vector (Invitrogen, USA), containing the full length of cDNA encoding the PCSK7 mRNA with the complete 3′-UTR in Huh7 cells. […] Thereafter, the impact of miR-125a-5p on the enzymatic function of PC7 was assessed by co-transfecting Huh7 cells with the miR-125a-5p-overexpressing vector, with that coding for the full length of PCSK7, and a plasmid encoding hTfR1 (Guillemot et al., 2013; Durand et al., 2020). […]
Subsequently, proteins were isolated with an ice-cold RIPA buffer (1×), comprising 50 mM of Tris hydrochloride (pH 8), 150 mM of sodium chloride, 0.1% sodium dodecyl sulfate, 1% Nonidet P40, 0.25% sodium deoxycholate, and a cocktail of protease inhibitors (Roche, Oakville, ON, Canada). […] Subsequently, immunoreactive bands (the signal) were visualized with an enhanced chemiluminescent reaction kit (Bio-Rad, USA) and recorded via chemiluminescence. […]

miR-125a-5p: miRNA targeting PCSK7 3′-UTR and exons 14 and 15, overexpressed from pEGFP-C1 precursor vector (UCCCUGAGACCCUUUAACCUGUGA; miRNA expressed from a pEGFP-C1 precursor vector, further chemistry not given here)
ability of PC7 to shed hTfR1 into the media: led to a decline
